According to ChEMBL document CHEMBL5579883, “Discovery of Novel Neo-Clerodane Derivatives as Potent Dual-Functional Antiosteoporosis Agents through Targeting Peroxisome Proliferator-Activated Receptor-γ” (J Med Chem, 2024):
Calls of active or inactive are those of the source. No cut-off for these calls is given here.

Columns and labels:
BMDM [1] = assay: Inhibition of osteoclastogenesis in C57BL/6J mouse Bone marrow macrophage cells assessed as inhibition of RANKL-stimulated osteoclast formation at 10 uM measured after 7 days by tartrate-resistant acid phosphatase (TRAP) staining assay; format: functional, cell-based; conditions: time 7.0 day
[2] = molecular target: T1, Peroxisome proliferator-activated receptor gamma (Homo sapiens, UniProt P37231); assay: Antagonist activity at PPAR gamma LBD (203 to 476 residues) (unknown origin) expressed in HEK293T cells co-transfected with pCMV-GAL4-PPARgamma-LBD-SV40-Renilla-luciferase assessed as reduction of rosiglitazone induced PPAR-gamma activation incubated for 24 hrs by dural-luciferase reporter assay; format: cell-based
T1 sequence (P37231 whole entry): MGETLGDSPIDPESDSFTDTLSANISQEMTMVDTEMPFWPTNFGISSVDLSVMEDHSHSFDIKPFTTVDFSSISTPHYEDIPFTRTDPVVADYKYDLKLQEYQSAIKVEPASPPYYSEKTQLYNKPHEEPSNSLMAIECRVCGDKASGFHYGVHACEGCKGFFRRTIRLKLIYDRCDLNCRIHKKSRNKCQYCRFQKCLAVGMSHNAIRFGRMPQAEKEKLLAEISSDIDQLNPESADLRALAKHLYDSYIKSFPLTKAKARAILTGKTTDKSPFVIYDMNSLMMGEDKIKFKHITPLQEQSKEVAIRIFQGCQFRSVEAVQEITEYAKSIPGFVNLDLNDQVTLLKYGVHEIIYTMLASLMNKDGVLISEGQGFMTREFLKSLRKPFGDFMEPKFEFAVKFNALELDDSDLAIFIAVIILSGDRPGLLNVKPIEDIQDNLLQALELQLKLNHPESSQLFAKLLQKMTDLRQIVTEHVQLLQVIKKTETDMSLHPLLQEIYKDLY

[3] = molecular target: T1, Peroxisome proliferator-activated receptor gamma; assay: Binding affinity to PPAR gamma LBD (203 to 476 residues) (unknown origin) extracted from Escherichia coli BL21 (DE3) cells assessed as dissociation constant in presence of rosiglitazone by Isothermal titration calorimetry method
BMDM [4] = assay: Cytotoxicity against mouse Bone marrow macrophage at 10 uM measured after 72 hrs by MTT assay; format: toxicity, cell-based
BMDM [5] = assay: cells; conditions: Mus musculus, 144 h, read-out: INH
Description: Inhibition of osteoclastogenesis in C57BL/6J mouse Bone marrow macrophage cells assessed as inhibition of RANKL-stimulated osteoclast formation at 10 uM measured after 6 days by tartrate-resistant acid phosphatase (TRAP) staining assay relative to control

BMDM [6] = assay: Inhibition of osteoclastogenesis in C57BL/6J mouse Bone marrow macrophage cells assessed as inhibition of RANKL-stimulated osteoclast formation measured after 6 days by tartrate-resistant acid phosphatase (TRAP) staining assay; conditions: 144 h
[7] = molecular target: Nuclear receptor corepressor 1 (Homo sapiens) (UniProt O75376); assay: Effect on NCoR recruitment (unknown origin) at 10 uM incubated for 24 hrs by TR-FRET assay
Nuclear receptor corepressor 1 (Homo sapiens), sequence (O75376 whole entry, the tested form may be a part): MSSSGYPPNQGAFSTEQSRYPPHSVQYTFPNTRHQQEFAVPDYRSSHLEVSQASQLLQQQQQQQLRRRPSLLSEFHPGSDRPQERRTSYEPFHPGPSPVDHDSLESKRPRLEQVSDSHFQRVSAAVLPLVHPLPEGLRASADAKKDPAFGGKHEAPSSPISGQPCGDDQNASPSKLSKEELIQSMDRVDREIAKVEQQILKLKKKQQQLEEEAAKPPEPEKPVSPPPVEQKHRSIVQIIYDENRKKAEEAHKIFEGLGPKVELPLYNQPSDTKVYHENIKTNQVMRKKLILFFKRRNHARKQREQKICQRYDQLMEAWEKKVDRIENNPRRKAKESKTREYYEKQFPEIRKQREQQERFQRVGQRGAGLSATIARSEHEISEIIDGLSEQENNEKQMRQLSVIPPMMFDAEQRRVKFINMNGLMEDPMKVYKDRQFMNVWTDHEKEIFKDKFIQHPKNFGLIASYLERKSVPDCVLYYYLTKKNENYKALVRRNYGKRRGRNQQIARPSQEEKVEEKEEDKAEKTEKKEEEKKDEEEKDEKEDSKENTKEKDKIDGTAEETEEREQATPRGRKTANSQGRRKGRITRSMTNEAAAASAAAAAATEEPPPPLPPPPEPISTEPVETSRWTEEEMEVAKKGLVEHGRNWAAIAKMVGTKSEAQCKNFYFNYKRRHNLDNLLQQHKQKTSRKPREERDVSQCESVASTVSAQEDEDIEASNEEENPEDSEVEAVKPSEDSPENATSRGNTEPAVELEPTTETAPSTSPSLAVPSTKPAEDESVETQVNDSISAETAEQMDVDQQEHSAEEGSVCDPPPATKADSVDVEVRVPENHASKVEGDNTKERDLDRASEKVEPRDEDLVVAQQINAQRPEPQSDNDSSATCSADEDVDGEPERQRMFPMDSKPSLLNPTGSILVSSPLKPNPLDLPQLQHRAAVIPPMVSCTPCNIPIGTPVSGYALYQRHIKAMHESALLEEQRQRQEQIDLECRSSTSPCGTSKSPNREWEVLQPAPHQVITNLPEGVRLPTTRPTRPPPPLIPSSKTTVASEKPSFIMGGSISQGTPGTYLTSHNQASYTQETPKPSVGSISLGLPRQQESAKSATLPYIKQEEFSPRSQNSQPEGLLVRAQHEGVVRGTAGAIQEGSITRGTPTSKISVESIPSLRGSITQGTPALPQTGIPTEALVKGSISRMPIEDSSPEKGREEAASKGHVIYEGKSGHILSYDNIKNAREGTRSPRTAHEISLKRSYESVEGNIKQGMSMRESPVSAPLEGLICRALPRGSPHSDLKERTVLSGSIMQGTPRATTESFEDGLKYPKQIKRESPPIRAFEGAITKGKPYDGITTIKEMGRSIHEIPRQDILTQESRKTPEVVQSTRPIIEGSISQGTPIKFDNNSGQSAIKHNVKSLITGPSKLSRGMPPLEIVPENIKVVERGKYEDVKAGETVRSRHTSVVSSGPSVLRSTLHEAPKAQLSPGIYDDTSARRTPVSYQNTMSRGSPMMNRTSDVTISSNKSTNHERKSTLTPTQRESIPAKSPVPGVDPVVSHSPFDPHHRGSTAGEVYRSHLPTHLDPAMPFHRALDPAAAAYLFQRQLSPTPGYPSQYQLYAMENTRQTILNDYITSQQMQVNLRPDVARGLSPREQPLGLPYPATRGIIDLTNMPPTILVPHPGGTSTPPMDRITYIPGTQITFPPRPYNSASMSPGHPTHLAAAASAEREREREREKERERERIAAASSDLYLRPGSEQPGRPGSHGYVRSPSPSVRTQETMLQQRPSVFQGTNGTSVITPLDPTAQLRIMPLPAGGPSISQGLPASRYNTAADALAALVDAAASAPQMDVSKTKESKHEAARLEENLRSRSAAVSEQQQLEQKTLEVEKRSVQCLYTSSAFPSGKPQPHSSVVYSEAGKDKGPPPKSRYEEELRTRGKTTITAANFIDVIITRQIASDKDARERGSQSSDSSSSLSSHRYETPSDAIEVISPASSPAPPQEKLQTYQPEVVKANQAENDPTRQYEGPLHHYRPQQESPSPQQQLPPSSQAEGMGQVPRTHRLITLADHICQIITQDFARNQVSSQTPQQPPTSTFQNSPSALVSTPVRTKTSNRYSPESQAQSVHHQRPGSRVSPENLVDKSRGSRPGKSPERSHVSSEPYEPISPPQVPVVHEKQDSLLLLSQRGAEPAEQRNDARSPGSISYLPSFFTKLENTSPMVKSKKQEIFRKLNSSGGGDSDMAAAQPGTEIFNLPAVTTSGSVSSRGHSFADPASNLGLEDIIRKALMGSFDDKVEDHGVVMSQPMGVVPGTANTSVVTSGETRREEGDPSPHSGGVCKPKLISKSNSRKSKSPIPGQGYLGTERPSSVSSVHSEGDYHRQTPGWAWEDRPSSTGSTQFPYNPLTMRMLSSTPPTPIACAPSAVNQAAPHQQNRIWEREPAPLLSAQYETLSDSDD

[8] = molecular target: T1, Peroxisome proliferator-activated receptor gamma; assay: Binding affinity to PPAR gamma LBD (203 to 476 residues) (unknown origin) extracted from Escherichia coli BL21 (DE3) cells assessed as dissociation constant by Isothermal titration calorimetry method
BMDM [9] = assay: Inhibition of osteoclastogenesis in C57BL/6J mouse Bone marrow macrophage cells assessed as inhibition of RANKL-stimulated osteoclast formation at 10 uM measured after 7 days in presence of rosiglitazone by tartrate-resistant acid phosphatase (TRAP) staining assay; format: functional, cell-based; conditions: time 7.0 day
[10] = molecular target: T2, Peroxisome proliferator-activated receptor gamma coactivator 1-alpha (Homo sapiens) (UniProt Q9UBK2); assay: Effect on PGC-1 alpha recruitment (unknown origin) incubated for 24 hrs at 10 uM by TR-FRET assay
T2 sequence (whole entry): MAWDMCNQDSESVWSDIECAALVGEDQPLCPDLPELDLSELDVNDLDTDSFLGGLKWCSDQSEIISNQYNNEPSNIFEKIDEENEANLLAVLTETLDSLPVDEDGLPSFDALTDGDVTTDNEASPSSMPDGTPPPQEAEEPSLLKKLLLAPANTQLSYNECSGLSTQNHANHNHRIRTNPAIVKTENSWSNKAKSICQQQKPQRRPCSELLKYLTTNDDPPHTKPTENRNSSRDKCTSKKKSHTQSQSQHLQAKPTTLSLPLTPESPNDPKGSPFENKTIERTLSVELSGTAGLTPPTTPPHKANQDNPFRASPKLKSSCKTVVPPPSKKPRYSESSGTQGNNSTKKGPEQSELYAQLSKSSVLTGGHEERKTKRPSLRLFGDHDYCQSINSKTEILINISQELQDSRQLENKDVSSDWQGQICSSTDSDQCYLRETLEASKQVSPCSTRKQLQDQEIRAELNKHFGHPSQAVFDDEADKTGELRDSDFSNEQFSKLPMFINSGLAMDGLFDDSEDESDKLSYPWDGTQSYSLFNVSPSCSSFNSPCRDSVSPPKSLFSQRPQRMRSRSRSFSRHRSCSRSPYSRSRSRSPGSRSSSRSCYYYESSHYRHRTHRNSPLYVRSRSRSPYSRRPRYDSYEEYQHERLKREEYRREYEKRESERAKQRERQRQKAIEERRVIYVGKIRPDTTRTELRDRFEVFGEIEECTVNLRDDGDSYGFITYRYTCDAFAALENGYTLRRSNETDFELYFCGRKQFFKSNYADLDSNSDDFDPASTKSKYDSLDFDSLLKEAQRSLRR

Mus musculus [11] = assay: Anti-osteoporosis activity in OVX-induced osteoporosis C57BL/6J mouse model assessed as prevention of increase in bone surface area/bone volume in femur at 10 mg/kg, IG administered once a day for 4 weeks by micro-CT scanning analysis; format: functional, organism-based
Mus musculus [12] = assay: Anti-osteoporosis activity in OVX-induced osteoporosis C57BL/6J mouse model assessed as prevention of bone volume/[…] volume decrease in femur at 10 mg/kg, IG administered once a day for 4 weeks by micro-CT scanning analysis; format: functional, organism-based
Mus musculus [13] = assay: Anti-osteoporosis activity in OVX-induced osteoporosis C57BL/6J mouse model assessed as reduction in CTX-1 level at 10 mg/kg, IG administered once a day for 4 weeks by ELISA method; format: functional, organism-based
Mus musculus [14] = assay: Anti-osteoporosis activity in OVX-induced osteoporosis C57BL/6J mouse model assessed as recovery of serum estradiol level at 10 mg/kg, IG administered once a day for 4 weeks by ELISA method; format: functional, organism-based
Mus musculus [15] = assay: Anti-osteoporosis activity in OVX-induced osteoporosis C57BL/6J mouse model assessed as prevention of trabecular thickness decrease in femur at 10 mg/kg, IG administered once a day for 4 weeks by micro-CT scanning analysis; format: functional, organism-based
Mus musculus [16] = assay: Anti-osteoporosis activity in OVX-induced osteoporosis C57BL/6J mouse model assessed as prevention of trabecular number decrease in femur at 10 mg/kg, IG administered once a day for 4 weeks by micro-CT scanning analysis; format: functional, organism-based
Mus musculus [17] = assay: Anti-osteoporosis activity in C57BL/6J mouse model assessed as downregulation of OVX-induced IL-6 accumulation at 10 mg/kg, IG administered once a day for 4 weeks by ELISA method; format: functional, organism-based
Mus musculus [18] = assay: Anti-osteoporosis activity in OVX-induced osteoporosis C57BL/6J mouse model assessed as reduction in RANKL level at 10 mg/kg, IG administered once a day for 4 weeks by ELISA method; format: functional, organism-based
Mus musculus [19] = assay: Anti-osteoporosis activity in OVX-induced osteoporosis C57BL/6J mouse model assessed as reduction in osteocalcin level at 10 mg/kg, IG administered once a day for 4 weeks by ELISA method; format: functional, organism-based
Mus musculus [20] = assay: Anti-osteoporosis activity in OVX-induced osteoporosis C57BL/6J mouse model assessed as reduction in PINP level at 10 mg/kg, IG administered once a day for 4 weeks by ELISA method; format: functional, organism-based
Mus musculus [21] = assay: Anti-osteoporosis activity in C57BL/6J mouse model assessed as downregulation of OVX-induced TNF-alpha accumulation at 10 mg/kg, IG administered once a day for 4 weeks by ELISA method; format: functional, organism-based
Mus musculus [22] = assay: Anti-osteoporosis activity in OVX-induced osteoporosis C57BL/6J mouse model assessed as reduction in ACP5 level at 10 mg/kg, IG administered once a day for 4 weeks by ELISA method; format: functional, organism-based

## C/C=C(\C)C(=O)OC[C@@]12[C@@H](OC(C)=O)C[C@@H](C)[C@](C)(CCC3=CC(=O)OC3)[C@H]1CCC[C@]21CO1 [AJUGACUMBIN A]
BMDM [1]
  inhibition: Active
[2]
  IC50: 8.35 µM
[3]
  Kd: 79.5 µM
BMDM [4]
  Activity: Non-Toxic
BMDM [5]
  inhibition at 10 µM: > 50%
BMDM [6]
  IC50: 1.92 µM
[7]
  Activity: inactive
[8]
  Kd: 17.7 µM
BMDM [9]
  inhibition: Active
[10]
  Activity: inactive

## C/C=C(\C)C(=O)OC[C@@]12[C@H](CCC[C@]1(O)CCl)[C@@](C)(C[C@H](O)C1=CC(=O)OC1)[C@H](C)C[C@@H]2O
[2]
  IC50: 11.5 µM
BMDM [4]
  Activity: Non-Toxic
BMDM [5]
  inhibition at 10 µM: > 50%
BMDM [6]
  IC50: 1.72 µM

## C/C=C(\C)C(=O)OC[C@@]12[C@H](CCC[C@]13CO3)[C@@](C)(C[C@H](O)C1=CC(=O)OC1)[C@H](C)C[C@@H]2O
[2]
  IC50: 11.5 µM
BMDM [4]
  Activity: Non-Toxic
BMDM [5]
  inhibition at 10 µM: > 50%
BMDM [6]
  IC50: 3.23 µM

## C/C=C(\C)C(=O)OC[C@@]12[C@@H](OC(C)=O)C[C@@H](C)[C@](C)(CCC3=CC(=O)OC3)[C@H]1CCC[C@]2(O)CCl [AJUGACUMBIN A CHLOROHYDRIN]
[2]
  IC50: 10.2 µM
BMDM [4]
  Activity: Non-Toxic
BMDM [5]
  inhibition at 10 µM: > 50%
BMDM [6]
  IC50: 1.11 µM

## CC(=O)OC[C@@]12[C@@H](OC(C)=O)C[C@@H](C)[C@](C)(C[C@H](OC(C)=O)C3=CC(=O)OC3)[C@H]1[C@H](O)CC[C@]21CO1
[2]
  IC50: 13 µM
BMDM [4]
  Activity: Non-Toxic
BMDM [5]
  inhibition at 10 µM: > 50%
BMDM [6]
  IC50: 5.1 µM

## C/C=C(\C)C(=O)O[C@@H](C[C@@]1(C)[C@H](C)C[C@H](OC(C)=O)[C@]2(COC(C)=O)[C@@H]1[C@H](O)CC[C@]21CO1)C1=CC(=O)OC1
[2]
  IC50: 19.5 µM
BMDM [4]
  Activity: Non-Toxic
BMDM [5]
  inhibition at 10 µM: > 50%
BMDM [6]
  IC50: 4.68 µM

## C/C=C(\C)C(=O)O[C@@H](C[C@@]1(C)[C@H](C)C[C@H](OC(C)=O)[C@]2(COC(C)=O)[C@@H]1CCC[C@]21CO1)C1=CC(=O)OC1 [AJUGANIPPONIN B]
BMDM [1]
  inhibition: Active
[2]
  IC50: 6.99 µM
[3]
  Kd: 127 µM
BMDM [4]
  Activity: Non-Toxic
BMDM [5]
  inhibition at 10 µM: > 50%
BMDM [6]
  IC50: 0.97 µM
[7]
  Activity: inactive
[8]
  Kd: 16 µM
BMDM [9]
  inhibition: Active
[10]
  Activity: inactive

## COC(=O)[C@@H]1CCC[C@@H]2[C@@](C)(C[C@H](OC(=O)C(C)C)C3=CC(=O)OC3)[C@H](C)C[C@H](O)[C@]21C
[2]
  IC50: 12.5 µM
BMDM [4]
  Activity: Non-Toxic
BMDM [5]
  inhibition at 10 µM: > 50%
BMDM [6]
  IC50: 1.79 µM

## CC(=O)OC[C@@]12[C@@H](OC(C)=O)C[C@@H](C)[C@](C)(C[C@H](OC(C)=O)C3=CC(=O)OC3)[C@H]1CCC[C@]21CO1
[2]
  IC50: 13.2 µM
BMDM [4]
  Activity: Non-Toxic
BMDM [5]
  inhibition at 10 µM: > 50%
BMDM [6]
  IC50: 2.73 µM

## CCC(C)C(=O)O[C@@H](C[C@@]1(C)[C@H](C)C[C@H](OC(C)=O)[C@]2(COC(C)=O)[C@@H]1CCC[C@]21CO1)C1=CC(=O)OC1 (some centres undefined)
Mus musculus [11]
  Activity: Active
Mus musculus [12]
  Activity: Active
Mus musculus [13]
  Activity: Active
[2]
  IC50: 12.2 µM
Mus musculus [14]
  Activity: Active
Mus musculus [15]
  Activity: Active
Mus musculus [16]
  Activity: Active
BMDM [4]
  Activity: Non-Toxic
Mus musculus [17]
  Activity: Active
BMDM [5]
  inhibition at 10 µM: > 50%
Mus musculus [18]
  Activity: Active
Mus musculus [19]
  Activity: Active
BMDM [6]
  IC50: 1.42 µM
Mus musculus [20]
  Activity: Active
Mus musculus [21]
  Activity: Active
Mus musculus [22]
  Activity: Active
